The values that follow come from patent EP4722219A1 (Gan & Lee Pharmaceuticals Co., Ltd., priority 2023, dated 2024).

Common to all, as to type: cell-based
Experiment [1] deals with T1, SMARCA4 (Homo sapiens, UniProt P51532). Description: SMARCA4 degradation in SW1573 cells (Western blot). Details: endogenous in cells; host or cells: SW1573. The settings on record: 24 hours; for Dmax at 0.001 µM / Dmax at 0.08 µM: read-out: Degradation rate of SMARCA4 in SW1573 cells (%). As for the experimental part:
SW1573 cells were seeded at 2x10^5Cells/well in a 6-well plate. 2 mL of EMEM medium supplemented with 10% FBS was added to each well and was incubated overnight to allow cell attachment. […] The cells were returned to the incubator and incubated for another 24 hours.
(§1) After 24 hours, cells were harvested, the medium was aspirated, and the cells were rinsed once with 1 mL/well PBS. The PBS was aspirated, and 40 µL/well of RIPA lysis buffer containing protease inhibitors was added. After lysis and centrifugation, total protein extracts were obtained, and protein concentration in the extracts was determined by BCA assay. Protein electrophoresis was performed by SDS-PAGE, followed by constant voltage electrophoresis at 100 V for 60 minutes and the protein was then transferred to a PVDF membrane. The PVDF membrane was blocked in 5% skim milk powder for 1 hour at room temperature. […] After washing the membrane, secondary antibodies were added and incubated at room temperature for 1 hour (protected from the light). After washing, the membrane was exposed using an Odyssey luminometer. Grayscale analysis of bands was performed using Image Studio software.
(§2) The degradation rate (%) of SMARCA2/4 by the PROTAC compounds of the present invention in HeLa cells and SW1573 cells is shown in Table 10. Table 10 Degradation rate of SMARCA2/4 by PROTAC compounds of the present invention in HeLa cells and SW1573 cells (%)
(In general: In western blotting, separated proteins are transferred to a membrane and probed.)

In experiment [2] the target is T2, SMARCA2 (Homo sapiens, UniProt P51531). In words: SMARCA2 degradation in HeLa cells (Western blot). Details: endogenous in cells. The settings on record: 4 hours. How it is done:
(§3) Test Example 10 Degradation rate (%) of SMARCA2/4 by the PROTAC compounds of the present invention in HeLa cells and SW1573 cells
HeLa cells were seeded at 1.2 x 10^5 cells/well in a 6-well plate. 2 mL of EMEM medium supplemented with 10% FBS was added to each well and the culture dish was incubated overnight to allow the cells to adhere. The next day, 1 µL of 160 µM and 1 µL of 2 µM compound were added to the corresponding wells, resulting in final compound concentrations of 80 nM and 1 nM, respectively, and a final DMSO concentration of 0.05%. The cells were returned to the incubator and incubated for another 4 hours.
(§4) After 4 hours, cells were harvested, the culture medium was aspirated, and the cells were rinsed once with 1 mL/well PBS. The PBS was aspirated, and 40 µL/well of RIPA lysis buffer containing protease inhibitors was added. After lysis and centrifugation, total protein extracts were obtained, and protein concentration in the extracts was determined by BCA assay. Protein electrophoresis was performed by SDS-PAGE, followed by constant voltage electrophoresis at 100 V for 60 minutes and the protein was then transferred to a PVDF membrane. The PVDF membrane was blocked in 5% skim milk powder for 1 hour at room temperature. Primary antibodies (SMARCA2: CST#11966S, SMARCA4: CST#49360S, GAPDH: CST#5174S) were added and incubated overnight at 4°C. After washing the membrane, secondary antibodies were added and incubated at room temperature for 1 hour (protected from the light). After washing, the membrane was exposed using an Odyssey luminometer. Grayscale analysis of bands was performed using Image Studio software.
as §2

Experiment [3] deals with T1, SMARCA4. Description: SMARCA4 degradation in HeLa cells (Western blot). The settings on record: 4 hours; for Dmax at 0.001 µM / Dmax at 0.08 µM: read-out: Degradation rate of SMARCA4 in HeLa cells (%). Details: endogenous in cells. As for the experimental part: HeLa cells were seeded at 1.2 x 10^5 cells/well in a 6-well plate. 2 mL of EMEM medium supplemented with 10% FBS was added to each well and the culture dish was incubated overnight to allow the cells to adhere. […] The cells were returned to the incubator and incubated for another 4 hours.
as §1, with “After 4 hours, cells” for “After 24 hours, cells”, “harvested, the culture medium was” for “harvested, the medium was”
as §2

Experiment [4] addresses T2, SMARCA2. In words: SMARCA2 degradation in SW1573 cells (Western blot). Details: endogenous in cells; host or cells: SW1573. The settings on record: 24 hours. How it is done:
as §3
SW1573 cells were seeded at 2x10^5Cells/well in a 6-well plate. 2 mL of EMEM medium supplemented with 10% FBS was added to each well and was incubated overnight to allow cell attachment. The next day, 1 µL of 160 µM and 1 µL of 2 µM compound were added to the corresponding wells for treatment, resulting in final compound concentrations of 80 nM and 1 nM, respectively, and a final DMSO concentration of 0.05%. The cells were returned to the incubator and incubated for another 24 hours.
as §4, with “After 24” for “After 4”, “the” for “the culture”
as §2

T2 sequence (P51531 whole entry): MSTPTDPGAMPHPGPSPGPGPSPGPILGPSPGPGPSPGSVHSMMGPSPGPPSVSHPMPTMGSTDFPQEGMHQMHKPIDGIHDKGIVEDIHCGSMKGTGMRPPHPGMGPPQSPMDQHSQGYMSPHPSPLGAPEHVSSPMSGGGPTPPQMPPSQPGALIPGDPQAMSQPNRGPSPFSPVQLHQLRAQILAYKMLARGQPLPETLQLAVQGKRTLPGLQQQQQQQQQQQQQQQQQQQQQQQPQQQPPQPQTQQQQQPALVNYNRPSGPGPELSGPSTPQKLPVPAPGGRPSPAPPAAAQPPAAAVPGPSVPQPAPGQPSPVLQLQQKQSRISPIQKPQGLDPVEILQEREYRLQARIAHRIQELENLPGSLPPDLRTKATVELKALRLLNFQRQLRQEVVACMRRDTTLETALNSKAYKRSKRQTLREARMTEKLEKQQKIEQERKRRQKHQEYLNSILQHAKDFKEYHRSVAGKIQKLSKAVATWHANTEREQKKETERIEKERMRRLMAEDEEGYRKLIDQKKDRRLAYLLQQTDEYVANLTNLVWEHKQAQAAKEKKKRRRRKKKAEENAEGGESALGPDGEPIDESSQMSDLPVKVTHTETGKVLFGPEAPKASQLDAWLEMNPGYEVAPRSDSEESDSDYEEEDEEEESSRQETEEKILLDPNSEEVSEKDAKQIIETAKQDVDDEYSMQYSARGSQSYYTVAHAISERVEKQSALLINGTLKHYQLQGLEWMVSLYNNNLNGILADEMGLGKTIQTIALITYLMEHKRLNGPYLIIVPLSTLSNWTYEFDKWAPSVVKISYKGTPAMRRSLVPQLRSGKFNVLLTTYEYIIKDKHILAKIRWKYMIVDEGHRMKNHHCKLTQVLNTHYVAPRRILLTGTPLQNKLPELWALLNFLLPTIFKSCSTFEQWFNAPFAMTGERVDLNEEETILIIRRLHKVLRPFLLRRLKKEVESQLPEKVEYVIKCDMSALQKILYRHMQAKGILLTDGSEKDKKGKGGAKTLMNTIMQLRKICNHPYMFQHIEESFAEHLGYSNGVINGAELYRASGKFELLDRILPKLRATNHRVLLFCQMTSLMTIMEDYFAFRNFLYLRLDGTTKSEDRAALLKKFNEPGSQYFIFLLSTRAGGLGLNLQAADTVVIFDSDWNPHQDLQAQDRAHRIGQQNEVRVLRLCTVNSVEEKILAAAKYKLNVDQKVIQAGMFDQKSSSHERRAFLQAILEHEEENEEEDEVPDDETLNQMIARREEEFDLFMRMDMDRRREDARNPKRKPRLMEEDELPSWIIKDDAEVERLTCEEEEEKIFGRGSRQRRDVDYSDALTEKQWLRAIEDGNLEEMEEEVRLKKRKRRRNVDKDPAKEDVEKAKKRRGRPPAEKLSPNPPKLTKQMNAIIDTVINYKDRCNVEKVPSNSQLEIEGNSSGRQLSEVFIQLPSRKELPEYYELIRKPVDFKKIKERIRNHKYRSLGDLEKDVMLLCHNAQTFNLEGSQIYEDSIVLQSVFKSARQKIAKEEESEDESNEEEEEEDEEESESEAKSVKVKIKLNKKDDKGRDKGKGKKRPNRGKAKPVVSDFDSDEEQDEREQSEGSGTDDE
T1 sequence (P51532 whole entry): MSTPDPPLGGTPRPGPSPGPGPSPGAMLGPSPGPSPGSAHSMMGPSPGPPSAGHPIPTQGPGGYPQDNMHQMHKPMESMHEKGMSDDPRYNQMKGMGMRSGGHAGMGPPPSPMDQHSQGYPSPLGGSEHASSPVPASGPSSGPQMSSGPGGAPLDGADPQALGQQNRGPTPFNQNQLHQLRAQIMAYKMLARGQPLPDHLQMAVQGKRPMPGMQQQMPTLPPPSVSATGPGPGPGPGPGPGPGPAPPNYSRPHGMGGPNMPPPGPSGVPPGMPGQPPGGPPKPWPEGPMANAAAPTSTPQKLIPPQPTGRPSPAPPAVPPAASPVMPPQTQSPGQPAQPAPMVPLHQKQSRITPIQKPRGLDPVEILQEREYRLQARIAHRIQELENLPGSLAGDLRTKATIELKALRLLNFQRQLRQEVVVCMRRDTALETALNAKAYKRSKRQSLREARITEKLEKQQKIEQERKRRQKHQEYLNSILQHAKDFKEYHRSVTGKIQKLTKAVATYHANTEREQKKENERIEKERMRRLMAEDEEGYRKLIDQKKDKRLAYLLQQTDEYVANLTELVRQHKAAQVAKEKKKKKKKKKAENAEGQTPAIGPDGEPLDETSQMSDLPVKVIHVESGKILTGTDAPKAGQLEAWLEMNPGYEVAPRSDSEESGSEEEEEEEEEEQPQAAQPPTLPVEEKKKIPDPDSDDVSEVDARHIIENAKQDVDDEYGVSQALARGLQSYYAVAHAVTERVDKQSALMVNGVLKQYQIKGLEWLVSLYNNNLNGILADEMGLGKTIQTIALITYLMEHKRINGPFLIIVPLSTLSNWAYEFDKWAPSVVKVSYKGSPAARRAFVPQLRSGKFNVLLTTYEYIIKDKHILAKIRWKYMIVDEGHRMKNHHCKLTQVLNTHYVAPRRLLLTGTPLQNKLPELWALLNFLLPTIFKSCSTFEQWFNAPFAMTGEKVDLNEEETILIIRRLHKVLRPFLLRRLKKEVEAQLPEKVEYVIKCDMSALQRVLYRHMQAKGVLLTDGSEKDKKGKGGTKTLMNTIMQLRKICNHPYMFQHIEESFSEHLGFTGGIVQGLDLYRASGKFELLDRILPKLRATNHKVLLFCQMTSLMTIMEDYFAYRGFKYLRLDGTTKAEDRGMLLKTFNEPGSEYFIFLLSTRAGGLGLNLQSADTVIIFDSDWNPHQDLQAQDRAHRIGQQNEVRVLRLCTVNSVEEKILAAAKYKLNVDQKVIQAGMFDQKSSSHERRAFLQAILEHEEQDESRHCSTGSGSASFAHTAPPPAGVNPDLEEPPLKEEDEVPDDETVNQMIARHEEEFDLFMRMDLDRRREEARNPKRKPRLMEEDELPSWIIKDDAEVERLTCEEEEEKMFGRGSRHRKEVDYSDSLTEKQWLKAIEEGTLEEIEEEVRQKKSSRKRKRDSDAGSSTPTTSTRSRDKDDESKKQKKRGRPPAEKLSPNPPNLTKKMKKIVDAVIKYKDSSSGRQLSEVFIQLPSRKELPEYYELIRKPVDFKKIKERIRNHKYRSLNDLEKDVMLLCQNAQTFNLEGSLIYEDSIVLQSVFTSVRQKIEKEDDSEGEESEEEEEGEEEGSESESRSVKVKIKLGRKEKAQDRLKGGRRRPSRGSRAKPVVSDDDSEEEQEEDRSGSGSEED

Take `Cn1c(=O)n(C2CCC(=O)NC2=O)c2cc3c(cc21)OC1(CC3)CCN(C2CC3(CCC(C#Cc4cc(-c5ccccc5O)nnc4N)CC3)C2)CC1` (stereo not shown) [SM-P-1, 3-(1'-(7-((3-amino-6-(2-hydroxyphenyl)pyridazin-4-yl)ethynyl)spiro[3.5]nonan-2-yl)-3-methyl-2-oxo-2,3,7,8-tetrahydro-1H-spiro[chromeno[6,7-d]imidazole-6,4'-piperidin]-1-yl)piperidine-2,6-dione]: the figures for the Dmax at 0.001 µM in experiment [1] (1 nM) and in experiment [3] (1 nM) were 43% and 85%, respectively. For the same compound, the Dmax at 0.08 µM was 97% in experiment [1] (80 nM) and 98% in experiment [3] (80 nM). Moreover, the “Degradation rate of SMARCA2 in HeLa cells (%)” value in experiment [2] (1 nM) worked out at 90%; in experiment [2] (80 nM) it was 100%. Further, the “Degradation rate of SMARCA2 in SW1573 cells (%)” value in experiment [4] (1 nM) worked out at 72%; in experiment [4] (80 nM) it was 96%.
Turning to `Nc1nnc(-c2ccccc2O)cc1C#CC1CCC2(CC1)CC(N1CCC3(CC1)CCC1(CC3)COc3c1ccc1c3CN(C3CCC(=O)NC3=O)C1=O)C2` (stereo not shown) [SM-P-2], the Dmax at 0.001 µM turned out to be 94% in experiment [1] (1 nM) and 92% in experiment [3] (1 nM). Besides, the Dmax at 0.08 µM in experiment [1] (80 nM) came to 100%; in experiment [3] (80 nM), 99%. The “Degradation rate of SMARCA2 in HeLa cells (%)” value in experiment [2] (1 nM) is recorded as 95%; in experiment [2] (80 nM), 98%. Besides, the figures for the “Degradation rate of SMARCA2 in SW1573 cells (%)” value in experiment [4] (1 nM) and in experiment [4] (80 nM) were 98% and 100%, respectively.
With `Nc1nnc(-c2ccccc2O)cc1C#CC1CCC2(CC1)CC(N1CCC3(CCc4cc(C(=O)N[C@H]5CCC(=O)NC5=O)c(F)cc4O3)CC1)C2` (stereo partly shown) [SM-P-7], the Dmax at 0.001 µM was -29% in experiment [1] (1 nM) and -52% in experiment [3] (1 nM). The Dmax at 0.08 µM stood at 39% in experiment [1] (80 nM) and 28% in experiment [3] (80 nM). The “Degradation rate of SMARCA2 in HeLa cells (%)” value in experiment [2] (1 nM) is listed as 7%; in experiment [2] (80 nM) it was 68%. Besides, the “Degradation rate of SMARCA2 in SW1573 cells (%)” value in experiment [4] (1 nM) is 1%; in experiment [4] (80 nM) it was 66%.
On to `Nc1nnc(-c2ccccc2O)cc1C#CC1CCC2(CC1)CC(N1CC3(CCc4cc(F)c(C(=O)N[C@H]5CCC(=O)NC5=O)cc4O3)C1)C2` (stereo partly shown) [SM-P-9], for which the Dmax at 0.001 µM in experiment [1] (1 nM) is -8%; in experiment [3] (1 nM), -7%. Moreover, the Dmax at 0.08 µM in experiment [1] (80 nM) was -5%; in experiment [3] (80 nM), 21%. Further, the “Degradation rate of SMARCA2 in HeLa cells (%)” value in experiment [2] (1 nM) stood at 11%; in experiment [2] (80 nM) it was 15%. The entries for the “Degradation rate of SMARCA2 in SW1573 cells (%)” value in experiment [4] (1 nM) and in experiment [4] (80 nM) were 3% and 7%, respectively.
As to `Nc1nnc(-c2ccccc2O)cc1C#CC1CCC2(CC1)CC(N1CCC3(CCc4cc(F)c(C(=O)N[C@H]5CCC(=O)NC5=O)cc4O3)CC1)C2` (stereo partly shown) [SM-P-12], the Dmax at 0.001 µM was found to be 28% in experiment [1] (1 nM) and 17% in experiment [3] (1 nM). The values for the Dmax at 0.08 µM in experiment [1] (80 nM) and in experiment [3] (80 nM) were 5% and 24%, respectively. Besides, the “Degradation rate of SMARCA2 in HeLa cells (%)” value in experiment [2] (1 nM) came out at 6%; in experiment [2] (80 nM) it was 14%. The “Degradation rate of SMARCA2 in SW1573 cells (%)” value in experiment [4] (1 nM) and in experiment [4] (80 nM) was 32% in each case.
`Nc1nnc(-c2ccccc2O)cc1C#CC1CCC2(CC1)CC(N1CCN3c4ccc(C(=O)N[C@H]5CCC(=O)NC5=O)cc4OCC[C@H]3C1)C2` (stereo partly drawn) [SM-P-13, (S)-3-(7-((3-amino-6-(2-hydroxyphenyl)pyridazin-4-yl)ethynyl)spiro[3.5]nonan-2-yl)-N-((S)-2,6-dioxopyrimidin-3-yl)-2,3,4,4a,5,6-hexahydro-1H-benzo[b]pyrazino[1,2-d] [1,4]oxythiophene-9-carboxamide]: the “Degradation rate of SMARCA4 in SW1573 cells (%)” value in experiment [1] (1 nM) is -11%; in experiment [1] (80 nM), 32%. The figures for the “Degradation rate of SMARCA2 in HeLa cells (%)” value in experiment [2] (1 nM) and in experiment [2] (80 nM) were 38% and 96%, respectively. Further, the “Degradation rate of SMARCA4 in HeLa cells (%)” value worked out at 19% in experiment [3] (1 nM) and 65% in experiment [3] (80 nM). Besides, the “Degradation rate of SMARCA2 in SW1573 cells (%)” value in experiment [4] (1 nM) amounted to 32%; in experiment [4] (80 nM), 88%.
`Nc1nnc(-c2ccccc2O)cc1C#CC1CCC2(CC1)CC(N1CCC3(CC1)COc1c3ccc(F)c1C(=O)N[C@H]1CCC(=O)NC1=O)C2` (stereo partly shown) [SM-P-19]: the “Degradation rate of SMARCA4 in SW1573 cells (%)” value in experiment [1] (1 nM) is 1%; in experiment [1] (80 nM), 0%. The “Degradation rate of SMARCA2 in HeLa cells (%)” value is 14% in experiment [2] (1 nM) and 59% in experiment [2] (80 nM). In addition, the figures for the “Degradation rate of SMARCA4 in HeLa cells (%)” value in experiment [3] (1 nM) and in experiment [3] (80 nM) were -11% and 24%, respectively. In addition, the “Degradation rate of SMARCA2 in SW1573 cells (%)” value in experiment [4] (1 nM) is 11%; in experiment [4] (80 nM) it was 31%.
On to `Nc1nnc(-c2ccccc2O)cc1C#CC1CCC2(CC1)CC(N1CCN3c4ccc(C(=O)N[C@H]5CCC(=O)NC5=O)cc4OC[C@@H]3C1)C2` (stereo partly shown) [SM-P-20], for which the “Degradation rate of SMARCA4 in SW1573 cells (%)” value in experiment [1] (1 nM) was -56%; in experiment [1] (80 nM) it was 22%. In addition, the “Degradation rate of SMARCA2 in HeLa cells (%)” value in experiment [2] (1 nM) was 23%; in experiment [2] (80 nM), 86%. Further, the “Degradation rate of SMARCA4 in HeLa cells (%)” value was found to be 32% in experiment [3] (1 nM) and 65% in experiment [3] (80 nM). The figures for the “Degradation rate of SMARCA2 in SW1573 cells (%)” value in experiment [4] (1 nM) and in experiment [4] (80 nM) were 12% and 76%, respectively.
